Measured values as given in ChEMBL document CHEMBL4387728, “Synthetic glycopeptides reveal specific binding pattern and conformational change at O-mannosylated position of α-dystroglycan by POMGnT1 catalyzed GlcNAc modification” (Bioorg Med Chem, 2019).
Active and inactive are the calls of the source. Peptide text beside a SMILES is read from it. * marks the point of attachment. X1 = CC(=O)N[C@H]1[C@H](O[C@H]2[C@@H](O)[C@H](O)[C@@H](CO)O[C@@H]2*)O[C@H](CO)[C@@H](O[C@@H]2O[C@H](CO)[C@H](O)[C@H](O[C@]3(C(=O)O)C[C@H](O)[C@@H](NC(C)=O)[C@H]([C@H](O)[C@H](O)CO)O3)[C@H]2O)[C@@H]1O; X2 = CC(=O)N[C@H]1[C@H](O[C@H]2[C@@H](O)[C@H](O)[C@@H](CO)O[C@@H]2*)O[C@H](CO)[C@@H](O[C@@H]2O[C@H](CO)[C@H](O)[C@H](O)[C@H]2O)[C@@H]1O; GlcNAc(β1-2)αMan = CC(=O)N[C@H]1[C@H](O[C@H]2[C@@H](O)[C@H](O)[C@@H](CO)O[C@@H]2*)O[C@H](CO)[C@@H](O)[C@@H]1O; Hexanoyl(5-oxo) = CC(=O)CCCC(=O)*

Key:
Datura stramonium = experiment: Binding affinity to biotin-labeled Datura stramonium agglutinin in pH 7.4 Tris buffer by fluorescence microarray method
Triticum aestivum = experiment: Binding affinity to biotin-labeled Wheat germ agglutinin in pH 7.4 Tris buffer by fluorescence microarray method
[1] = system: Sambucus racemosa subsp. sieboldiana; experiment: Binding affinity to biotin-labeled Sambucus sieboldiana agglutinin in pH 7.4 Tris buffer by fluorescence microarray method
[2] = molecular target: Lactotransferrin (Homo sapiens) (UniProt P02788); experiment: Binding affinity to biotin-labeled lactoferrin (unknown origin) at 10 ug/ml in pH 7.4 Tris buffer by fluorescence microarray method
Homo sapiens [3] = organism: Homo sapiens; experiment: Binding affinity to biotin-labeled human recombinant laminin-2 at 10 ug/ml in 5.6 MES buffer by fluorescence microarray method
Erythrina crista-galli = experiment: Binding affinity to biotin-labeled Erythrina crista-galli agglutinin in pH 7.4 Tris buffer by fluorescence microarray method
Maackia amurensis = experiment: Binding affinity to biotin-labeled Maackia amurensis agglutinin in pH 7.4 Tris buffer by fluorescence microarray method
[4] = molecular target: Laminin subunit alpha-1 (Homo sapiens) (UniProt P25391); experiment: Binding affinity to biotin-labeled human recombinant laminin-1 at 10 ug/ml in pH 5.6 MES buffer by fluorescence microarray method
Canavalia ensiformis = experiment: Binding affinity to biotin-labeled Canavalia ensiformis agglutinin in pH 7.4 Tris buffer by fluorescence microarray method
Homo sapiens [5] = organism: Homo sapiens; experiment: Binding affinity to biotin-labeled human recombinant laminin-2 at 10 ug/ml in pH 7.4 Tris buffer by fluorescence microarray method
[6] = Binding affinity to biotin-labeled Agaricus bisporus agglutinin in pH 7.4 Tris buffer by fluorescence microarray method
[7] = molecular target: Laminin subunit alpha-1 (Homo sapiens) (UniProt P25391); experiment: Binding affinity to biotin-labeled human recombinant laminin-1 at 10 ug/ml in pH 7.4 Tris buffer by fluorescence microarray method
Arachis hypogaea = experiment: Binding affinity to biotin-labeled Arachis hypogaea agglutinin in pH 7.4 Tris buffer by fluorescence microarray method
[8] = molecular target: Lactotransferrin (Homo sapiens) (UniProt P02788); experiment: Binding affinity to biotin-labeled lactoferrin (unknown origin) at 10 ug/ml in pH 5.6 MES buffer by fluorescence microarray method

Measured: Activity

Lactotransferrin (Homo sapiens), sequence (P02788 whole entry): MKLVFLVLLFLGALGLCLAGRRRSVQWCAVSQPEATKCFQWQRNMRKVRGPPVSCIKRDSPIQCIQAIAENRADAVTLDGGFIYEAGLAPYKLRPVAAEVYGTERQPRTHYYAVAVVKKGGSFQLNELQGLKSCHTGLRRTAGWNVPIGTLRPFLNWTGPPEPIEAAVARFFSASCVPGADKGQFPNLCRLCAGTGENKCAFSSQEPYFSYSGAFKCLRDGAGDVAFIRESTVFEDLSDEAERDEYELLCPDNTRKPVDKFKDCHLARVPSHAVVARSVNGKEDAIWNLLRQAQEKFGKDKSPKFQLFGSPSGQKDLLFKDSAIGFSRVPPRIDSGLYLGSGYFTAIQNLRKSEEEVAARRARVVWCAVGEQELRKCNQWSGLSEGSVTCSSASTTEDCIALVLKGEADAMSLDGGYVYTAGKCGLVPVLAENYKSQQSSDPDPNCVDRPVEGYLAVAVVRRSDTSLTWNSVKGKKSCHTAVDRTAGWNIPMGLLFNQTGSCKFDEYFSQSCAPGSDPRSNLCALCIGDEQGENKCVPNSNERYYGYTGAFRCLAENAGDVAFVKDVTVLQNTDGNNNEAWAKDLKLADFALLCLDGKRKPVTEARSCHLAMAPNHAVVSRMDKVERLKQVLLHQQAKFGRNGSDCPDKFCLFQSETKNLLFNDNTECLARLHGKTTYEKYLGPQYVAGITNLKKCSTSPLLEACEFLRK
Laminin subunit alpha-1 (Homo sapiens), sequence (P25391 whole entry): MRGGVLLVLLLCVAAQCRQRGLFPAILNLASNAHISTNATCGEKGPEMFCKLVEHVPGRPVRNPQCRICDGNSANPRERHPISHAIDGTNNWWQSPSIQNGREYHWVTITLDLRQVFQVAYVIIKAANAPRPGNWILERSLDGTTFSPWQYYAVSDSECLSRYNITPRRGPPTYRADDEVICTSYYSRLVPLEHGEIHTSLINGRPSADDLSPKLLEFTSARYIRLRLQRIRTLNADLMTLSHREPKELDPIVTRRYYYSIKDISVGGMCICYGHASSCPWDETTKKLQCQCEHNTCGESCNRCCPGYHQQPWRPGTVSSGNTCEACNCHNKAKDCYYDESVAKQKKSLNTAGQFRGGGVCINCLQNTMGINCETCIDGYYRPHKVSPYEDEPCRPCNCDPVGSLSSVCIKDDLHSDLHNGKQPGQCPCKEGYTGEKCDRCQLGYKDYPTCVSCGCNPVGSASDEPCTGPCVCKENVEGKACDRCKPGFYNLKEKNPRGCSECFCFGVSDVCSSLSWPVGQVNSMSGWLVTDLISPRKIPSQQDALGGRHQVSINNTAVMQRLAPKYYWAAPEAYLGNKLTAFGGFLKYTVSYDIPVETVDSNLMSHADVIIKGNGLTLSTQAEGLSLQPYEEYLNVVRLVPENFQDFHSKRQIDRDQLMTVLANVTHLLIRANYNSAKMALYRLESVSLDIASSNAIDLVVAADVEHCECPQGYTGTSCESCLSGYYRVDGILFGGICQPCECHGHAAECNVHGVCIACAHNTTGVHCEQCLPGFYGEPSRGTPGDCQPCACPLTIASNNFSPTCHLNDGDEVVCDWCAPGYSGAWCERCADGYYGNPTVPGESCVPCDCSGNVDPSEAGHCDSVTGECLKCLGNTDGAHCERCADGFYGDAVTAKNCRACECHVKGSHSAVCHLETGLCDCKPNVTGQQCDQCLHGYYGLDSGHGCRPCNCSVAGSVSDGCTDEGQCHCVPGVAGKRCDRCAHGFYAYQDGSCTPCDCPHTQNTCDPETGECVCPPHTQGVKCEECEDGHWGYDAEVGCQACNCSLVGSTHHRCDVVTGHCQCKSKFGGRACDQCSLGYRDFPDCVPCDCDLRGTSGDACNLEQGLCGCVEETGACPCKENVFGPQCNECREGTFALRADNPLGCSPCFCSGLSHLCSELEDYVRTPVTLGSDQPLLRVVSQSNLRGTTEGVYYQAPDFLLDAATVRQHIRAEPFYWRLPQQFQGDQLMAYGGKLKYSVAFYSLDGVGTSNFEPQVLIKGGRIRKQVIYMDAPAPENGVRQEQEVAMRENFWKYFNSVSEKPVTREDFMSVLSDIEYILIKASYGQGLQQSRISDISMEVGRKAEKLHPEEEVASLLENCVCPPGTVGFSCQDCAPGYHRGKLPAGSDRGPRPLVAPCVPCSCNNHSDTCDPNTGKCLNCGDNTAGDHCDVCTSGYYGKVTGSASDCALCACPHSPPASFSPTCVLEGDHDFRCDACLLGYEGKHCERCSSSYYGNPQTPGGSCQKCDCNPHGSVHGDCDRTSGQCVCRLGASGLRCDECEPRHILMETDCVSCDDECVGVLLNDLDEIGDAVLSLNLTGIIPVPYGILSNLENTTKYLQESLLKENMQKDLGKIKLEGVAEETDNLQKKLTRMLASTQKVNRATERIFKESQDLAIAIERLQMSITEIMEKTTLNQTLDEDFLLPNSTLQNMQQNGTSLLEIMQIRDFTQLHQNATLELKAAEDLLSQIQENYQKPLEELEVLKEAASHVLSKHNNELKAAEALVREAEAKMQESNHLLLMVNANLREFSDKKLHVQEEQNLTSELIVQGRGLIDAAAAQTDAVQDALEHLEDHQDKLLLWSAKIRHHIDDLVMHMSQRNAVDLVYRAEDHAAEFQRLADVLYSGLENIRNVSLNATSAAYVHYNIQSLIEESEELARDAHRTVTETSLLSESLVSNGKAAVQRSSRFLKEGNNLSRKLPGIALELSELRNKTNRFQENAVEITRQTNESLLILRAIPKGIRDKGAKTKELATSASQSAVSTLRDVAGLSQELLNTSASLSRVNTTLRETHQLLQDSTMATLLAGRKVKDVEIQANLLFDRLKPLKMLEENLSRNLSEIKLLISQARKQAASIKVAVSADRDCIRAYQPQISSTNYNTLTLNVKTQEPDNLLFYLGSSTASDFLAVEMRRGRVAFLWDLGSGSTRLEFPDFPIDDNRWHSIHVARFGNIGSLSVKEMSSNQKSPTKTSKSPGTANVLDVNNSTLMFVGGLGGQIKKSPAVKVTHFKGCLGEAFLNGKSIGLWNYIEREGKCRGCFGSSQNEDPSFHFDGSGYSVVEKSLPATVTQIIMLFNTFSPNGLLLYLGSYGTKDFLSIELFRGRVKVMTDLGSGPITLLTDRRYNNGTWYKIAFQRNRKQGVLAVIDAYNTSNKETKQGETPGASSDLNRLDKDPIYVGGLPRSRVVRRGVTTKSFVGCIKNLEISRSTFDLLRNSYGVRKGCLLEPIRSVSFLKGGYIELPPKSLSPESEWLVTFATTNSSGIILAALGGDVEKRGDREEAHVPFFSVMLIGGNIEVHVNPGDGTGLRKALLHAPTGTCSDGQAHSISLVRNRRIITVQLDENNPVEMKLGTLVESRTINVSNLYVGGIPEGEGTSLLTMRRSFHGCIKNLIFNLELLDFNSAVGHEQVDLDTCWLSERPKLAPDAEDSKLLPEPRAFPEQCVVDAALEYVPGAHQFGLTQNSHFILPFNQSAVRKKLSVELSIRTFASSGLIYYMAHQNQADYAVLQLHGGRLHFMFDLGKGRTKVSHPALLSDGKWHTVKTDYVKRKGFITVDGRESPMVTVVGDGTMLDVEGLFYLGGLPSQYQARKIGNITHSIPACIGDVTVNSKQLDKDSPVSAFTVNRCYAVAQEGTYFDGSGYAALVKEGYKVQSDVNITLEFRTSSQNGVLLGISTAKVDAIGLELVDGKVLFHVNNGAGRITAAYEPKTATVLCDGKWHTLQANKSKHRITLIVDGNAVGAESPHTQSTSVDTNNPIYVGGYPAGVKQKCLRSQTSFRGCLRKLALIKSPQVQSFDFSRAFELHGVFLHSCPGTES

CC[C@H](C)[C@H](NC(=O)[C@H](C)NC(=O)CNC(=O)[C@H](CCCNC(=N)N)NC(=O)[C@@H](NC(=O)CCCC(C)=O)[C@@H](C)O)C(=O)N[C@H](C(=O)N[C@@H](CCC(N)=O)C(=O)N[C@H](C(=O)N1CCC[C@H]1C(=O)N[C@H](C(=O)N[C@@H](CC(C)C)C(=O)NCC(=O)N1CCC[C@H]1C(=O)N[C@H](C(=O)N[C@@H](CCC(N)=O)C(=O)N1CCC[C@H]1C(=O)N[C@H](C(=O)N[C@@H](CCCNC(=N)N)C(=O)N[C@H](C(N)=O)C(C)C)[C@@H](C)O[C@H]1O[C@H](CO)[C@@H](O)[C@H](O)[C@@H]1O[C@@H]1O[C@H](CO)[C@@H](O)[C@H](O)[C@H]1NC(C)=O)[C@@H](C)CC)[C@@H](C)O)[C@@H](C)O[C@H]1O[C@H](CO)[C@@H](O)[C@H](O)[C@@H]1O[C@@H]1O[C@H](CO)[C@@H](O)[C@H](O)[C@H]1NC(C)=O)[C@@H](C)CC ({Hexanoyl(5-oxo)}-TRGAIIQT(GlcNAc(β1-2)αMan)PTLGPIQPT(GlcNAc(β1-2)αMan)RV-NH2)
inactive: Datura stramonium | [2] | Maackia amurensis | Homo sapiens [5]
active: Triticum aestivum | [1] | Homo sapiens [3] | Erythrina crista-galli | [4] | Canavalia ensiformis | [6] | [7] | Arachis hypogaea | [8]

CC[C@H](C)[C@H](NC(=O)[C@H](C)NC(=O)CNC(=O)[C@H](CCCNC(=N)N)NC(=O)[C@@H](NC(=O)CCCC(C)=O)[C@@H](C)O)C(=O)N[C@H](C(=O)N[C@@H](CCC(N)=O)C(=O)N[C@H](C(=O)N1CCC[C@H]1C(=O)N[C@H](C(=O)N[C@@H](CC(C)C)C(=O)NCC(=O)N1CCC[C@H]1C(=O)N[C@H](C(=O)N[C@@H](CCC(N)=O)C(=O)N1CCC[C@H]1C(=O)N[C@H](C(=O)N[C@@H](CCCNC(=N)N)C(=O)N[C@H](C(N)=O)C(C)C)[C@@H](C)O[C@H]1O[C@H](CO)[C@@H](O)[C@H](O)[C@@H]1O[C@@H]1O[C@H](CO)[C@@H](O[C@@H]2O[C@H](CO)[C@H](O)[C@H](O)[C@H]2O)[C@H](O)[C@H]1NC(C)=O)[C@@H](C)CC)[C@@H](C)O[C@H]1O[C@H](CO)[C@@H](O)[C@H](O)[C@@H]1O[C@@H]1O[C@H](CO)[C@@H](O[C@@H]2O[C@H](CO)[C@H](O)[C@H](O)[C@H]2O)[C@H](O)[C@H]1NC(C)=O)[C@@H](C)O)[C@@H](C)CC ({Hexanoyl(5-oxo)}-TRGAIIQTPT(X2)LGPIQPT(X2)RV-NH2)
active: Triticum aestivum | [1] | Homo sapiens [3] | Erythrina crista-galli | [4] | Canavalia ensiformis | [6] | [7] | Arachis hypogaea | [8]
inactive: Datura stramonium | [2] | Maackia amurensis | Homo sapiens [5]

CC[C@H](C)[C@H](NC(=O)[C@H](C)NC(=O)CNC(=O)[C@H](CCCNC(=N)N)NC(=O)[C@@H](NC(=O)CCCC(C)=O)[C@@H](C)O)C(=O)N[C@H](C(=O)N[C@@H](CCC(N)=O)C(=O)N[C@H](C(=O)N1CCC[C@H]1C(=O)N[C@H](C(=O)N[C@@H](CC(C)C)C(=O)NCC(=O)N1CCC[C@H]1C(=O)N[C@H](C(=O)N[C@@H](CCC(N)=O)C(=O)N1CCC[C@H]1C(=O)N[C@H](C(=O)N[C@@H](CCCNC(=N)N)C(=O)N[C@H](C(N)=O)C(C)C)[C@@H](C)O[C@H]1O[C@H](CO)[C@@H](O)[C@H](O)[C@@H]1O[C@@H]1O[C@H](CO)[C@@H](O)[C@H](O)[C@H]1NC(C)=O)[C@@H](C)CC)[C@@H](C)O[C@H]1O[C@H](CO)[C@@H](O)[C@H](O)[C@@H]1O[C@@H]1O[C@H](CO)[C@@H](O[C@@H]2O[C@H](CO)[C@H](O)[C@H](O)[C@H]2O)[C@H](O)[C@H]1NC(C)=O)[C@@H](C)O)[C@@H](C)CC ({Hexanoyl(5-oxo)}-TRGAIIQTPT(X2)LGPIQPT(GlcNAc(β1-2)αMan)RV-NH2)
active: Triticum aestivum | [1] | Homo sapiens [3] | Erythrina crista-galli | [4] | Canavalia ensiformis | [6] | [7] | Arachis hypogaea | [8]
inactive: Datura stramonium | [2] | Maackia amurensis | Homo sapiens [5]

CC[C@H](C)[C@H](NC(=O)[C@H](C)NC(=O)CNC(=O)[C@H](CCCNC(=N)N)NC(=O)[C@@H](NC(=O)CCCC(C)=O)[C@@H](C)O)C(=O)N[C@H](C(=O)N[C@@H](CCC(N)=O)C(=O)N[C@H](C(=O)N1CCC[C@H]1C(=O)N[C@H](C(=O)N[C@@H](CC(C)C)C(=O)NCC(=O)N1CCC[C@H]1C(=O)N[C@H](C(=O)N[C@@H](CCC(N)=O)C(=O)N1CCC[C@H]1C(=O)N[C@H](C(=O)N[C@@H](CCCNC(=N)N)C(=O)N[C@H](C(N)=O)C(C)C)[C@@H](C)O[C@H]1O[C@H](CO)[C@@H](O)[C@H](O)[C@@H]1O[C@@H]1O[C@H](CO)[C@@H](O)[C@H](O)[C@H]1NC(C)=O)[C@@H](C)CC)[C@@H](C)O[C@H]1O[C@H](CO)[C@@H](O)[C@H](O)[C@@H]1O[C@@H]1O[C@H](CO)[C@@H](O[C@@H]2O[C@H](CO)[C@H](O)[C@H](O[C@]3(C(=O)O)C[C@H](O)[C@@H](NC(C)=O)[C@H]([C@H](O)[C@H](O)CO)O3)[C@H]2O)[C@H](O)[C@H]1NC(C)=O)[C@@H](C)O)[C@@H](C)CC ({Hexanoyl(5-oxo)}-TRGAIIQTPT(X1)LGPIQPT(GlcNAc(β1-2)αMan)RV-NH2)
active: Triticum aestivum | [1] | Homo sapiens [3] | Erythrina crista-galli | [4] | Canavalia ensiformis | [6] | [7] | Arachis hypogaea | [8]
inactive: Datura stramonium | [2] | Maackia amurensis | Homo sapiens [5]

CC[C@H](C)[C@H](NC(=O)[C@H](C)NC(=O)CNC(=O)[C@H](CCCNC(=N)N)NC(=O)[C@@H](NC(=O)CCCC(C)=O)[C@@H](C)O)C(=O)N[C@H](C(=O)N[C@@H](CCC(N)=O)C(=O)N[C@H](C(=O)N1CCC[C@H]1C(=O)N[C@H](C(=O)N[C@@H](CC(C)C)C(=O)NCC(=O)N1CCC[C@H]1C(=O)N[C@H](C(=O)N[C@@H](CCC(N)=O)C(=O)N1CCC[C@H]1C(=O)N[C@H](C(=O)N[C@@H](CCCNC(=N)N)C(=O)N[C@H](C(N)=O)C(C)C)[C@@H](C)O[C@H]1O[C@H](CO)[C@@H](O)[C@H](O)[C@@H]1O[C@@H]1O[C@H](CO)[C@@H](O[C@@H]2O[C@H](CO)[C@H](O)[C@H](O[C@]3(C(=O)O)C[C@H](O)[C@@H](NC(C)=O)[C@H]([C@H](O)[C@H](O)CO)O3)[C@H]2O)[C@H](O)[C@H]1NC(C)=O)[C@@H](C)CC)[C@@H](C)O)[C@@H](C)O)[C@@H](C)CC ({Hexanoyl(5-oxo)}-TRGAIIQTPTLGPIQPT(X1)RV-NH2)
active: Triticum aestivum | [1] | Homo sapiens [3] | Erythrina crista-galli | [4] | Canavalia ensiformis | [6] | [7] | Arachis hypogaea | [8]
inactive: Datura stramonium | [2] | Maackia amurensis | Homo sapiens [5]

CC[C@H](C)[C@H](NC(=O)[C@H](C)NC(=O)CNC(=O)[C@H](CCCNC(=N)N)NC(=O)[C@@H](NC(=O)CCCC(C)=O)[C@@H](C)O)C(=O)N[C@H](C(=O)N[C@@H](CCC(N)=O)C(=O)N[C@H](C(=O)N1CCC[C@H]1C(=O)N[C@H](C(=O)N[C@@H](CC(C)C)C(=O)NCC(=O)N1CCC[C@H]1C(=O)N[C@H](C(=O)N[C@@H](CCC(N)=O)C(=O)N1CCC[C@H]1C(=O)N[C@H](C(=O)N[C@@H](CCCNC(=N)N)C(=O)N[C@H](C(N)=O)C(C)C)[C@@H](C)O[C@H]1O[C@H](CO)[C@@H](O)[C@H](O)[C@@H]1O[C@@H]1O[C@H](CO)[C@@H](O[C@@H]2O[C@H](CO)[C@H](O)[C@H](O)[C@H]2O)[C@H](O)[C@H]1NC(C)=O)[C@@H](C)CC)[C@@H](C)O[C@H]1O[C@H](CO)[C@@H](O)[C@H](O)[C@@H]1O[C@@H]1O[C@H](CO)[C@@H](O[C@@H]2O[C@H](CO)[C@H](O)[C@H](O[C@]3(C(=O)O)C[C@H](O)[C@@H](NC(C)=O)[C@H]([C@H](O)[C@H](O)CO)O3)[C@H]2O)[C@H](O)[C@H]1NC(C)=O)[C@@H](C)O)[C@@H](C)CC ({Hexanoyl(5-oxo)}-TRGAIIQTPT(X1)LGPIQPT(X2)RV-NH2)
active: Triticum aestivum | [1] | Homo sapiens [3] | Erythrina crista-galli | [4] | Canavalia ensiformis | [6] | [7] | Arachis hypogaea | [8]
inactive: Datura stramonium | [2] | Maackia amurensis | Homo sapiens [5]
